# Results from ChEMBL document CHEMBL4373635, “Synthesis of novel vanillin derivatives: novel multi-targeted scaffold ligands against Alzheimer's disease” (Medchemcomm, 2019).
# Calls of active or inactive are those of the source. No cut-off for these calls is given here.
# Legend:
# [1] = Antioxidant activity assessed as reduction of ferric-tripyridyltriazine complex by measuring trolox equivalents at pH 3.5 after 30 mins under dark condition by FRAP assay; assay type: functional
# [2] = Antioxidant activity assessed as AAPH radical scavenging activity by measuring trolox equivalents preincubated for 30 mins followed by AAPH addition and measured every 2 mins for 2 hrs by ORAC assay; assay type: functional
# [3] = target: Acetylcholinesterase (Electrophorus electricus, UniProt O42275); test: Inhibition of Electrophorus electricus AChE using acetylthiocholine iodide as substrate preincubated for 10 mins followed by substrate addition and measured after 10 mins by Ellman's method
# [4] = target: Amyloid-beta precursor protein (Homo sapiens) (UniProt P05067); test: Inhibition of amyloid beta (1 to 42 ) (unknown origin) self aggregation at 10 uM after 24 hrs by thioflavin-T fluorescence method relative to control
# [5] = test system: SH-SY5Y; test: Cytotoxicity against human SH-SY5Y cells assessed as cell viability at 5 uM after 24 hrs by MTT assay; assay type: cell-based
# [6] = test system: SH-SY5Y; test: Neuroprotective activity against human SH-SY5Y cells assessed as inhibition of H2O2-induced cell death at 5 uM preincubated for 24 hrs followed by H2O2 treatment and measured after 24 hrs by MTT assay relative to control; assay type: functional
# [7] = test system: SH-SY5Y; test: Cytotoxicity against human SH-SY5Y cells assessed as reduction in cell viability after 24 hrs by MTT assay; assay type: cell-based
# [8] = test system: SH-SY5Y; test: Cytotoxicity against human SH-SY5Y cells assessed as cell viability at 12.5 uM after 24 hrs by MTT assay; assay type: cell-based
# [9] = test system: SH-SY5Y; test: Cytotoxicity against human SH-SY5Y cells assessed as reduction in cell viability at 25 uM after 24 hrs by MTT assay; assay type: cell-based
# [10] = test system: SH-SY5Y; test: Neuroprotective activity against human SH-SY5Y cells assessed as H2O2-induced cell death at 0.01 to 0.1 uM preincubated for 24 hrs followed by H2O2 treatment and measured after 24 hrs by MTT assay; assay type: functional, cell-based
# [11] = test system: SH-SY5Y; test: Neuroprotective activity against human SH-SY5Y cells assessed as inhibition of H2O2-induced cell death at 1 uM preincubated for 24 hrs followed by H2O2 treatment and measured after 24 hrs by MTT assay; assay type: functional, cell-based
# Sequence of Acetylcholinesterase (O42275 whole entry): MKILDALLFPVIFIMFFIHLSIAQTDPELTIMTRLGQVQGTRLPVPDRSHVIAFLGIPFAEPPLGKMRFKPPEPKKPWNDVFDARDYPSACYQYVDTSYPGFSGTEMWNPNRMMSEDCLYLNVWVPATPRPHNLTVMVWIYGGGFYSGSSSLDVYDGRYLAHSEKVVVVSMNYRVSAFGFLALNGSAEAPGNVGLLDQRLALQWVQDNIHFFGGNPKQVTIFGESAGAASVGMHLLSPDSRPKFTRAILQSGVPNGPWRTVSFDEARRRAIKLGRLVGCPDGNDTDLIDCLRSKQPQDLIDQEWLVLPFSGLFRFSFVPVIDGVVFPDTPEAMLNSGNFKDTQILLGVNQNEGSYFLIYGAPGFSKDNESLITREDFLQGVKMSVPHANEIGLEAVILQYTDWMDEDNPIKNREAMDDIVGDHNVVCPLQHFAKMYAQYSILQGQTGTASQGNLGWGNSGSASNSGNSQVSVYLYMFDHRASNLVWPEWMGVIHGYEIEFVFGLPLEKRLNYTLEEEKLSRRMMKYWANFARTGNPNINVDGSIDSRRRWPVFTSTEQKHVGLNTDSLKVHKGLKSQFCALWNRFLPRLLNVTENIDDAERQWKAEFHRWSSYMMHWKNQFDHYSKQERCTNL
# Sequence of Amyloid-beta precursor protein (Homo sapiens) (P05067 whole entry): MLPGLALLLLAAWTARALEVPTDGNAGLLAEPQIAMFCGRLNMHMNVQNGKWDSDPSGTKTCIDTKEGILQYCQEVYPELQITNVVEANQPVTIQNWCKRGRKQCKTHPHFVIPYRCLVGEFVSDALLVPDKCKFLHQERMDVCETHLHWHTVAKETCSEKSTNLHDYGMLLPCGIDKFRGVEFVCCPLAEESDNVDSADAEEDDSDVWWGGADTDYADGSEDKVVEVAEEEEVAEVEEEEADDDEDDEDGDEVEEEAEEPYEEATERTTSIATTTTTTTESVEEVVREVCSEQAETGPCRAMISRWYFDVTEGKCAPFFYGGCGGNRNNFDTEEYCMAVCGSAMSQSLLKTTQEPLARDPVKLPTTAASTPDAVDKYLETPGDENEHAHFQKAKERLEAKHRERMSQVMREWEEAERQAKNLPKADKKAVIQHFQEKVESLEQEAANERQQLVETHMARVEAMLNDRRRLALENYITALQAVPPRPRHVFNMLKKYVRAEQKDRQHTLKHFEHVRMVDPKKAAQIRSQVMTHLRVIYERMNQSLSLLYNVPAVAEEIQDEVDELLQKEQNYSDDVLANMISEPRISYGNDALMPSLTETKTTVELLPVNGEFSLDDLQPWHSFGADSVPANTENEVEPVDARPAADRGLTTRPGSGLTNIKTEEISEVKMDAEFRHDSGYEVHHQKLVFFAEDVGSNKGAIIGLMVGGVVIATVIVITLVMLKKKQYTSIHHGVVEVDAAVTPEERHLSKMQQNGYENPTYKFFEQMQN
Structure (SMILES),Activity [1] [equiv],Activity [2] [equiv],IC50 [3] [µM],inhibition [4] [%],Activity [5],inhibition at 5 µM [6] [%],IC50 [7] [µM],Activity [8],Activity [9],Activity [10],Activity [11]
COc1cc(CNCCCN2C(=O)c3cccc4cccc(c34)C2=O)cc(OC)c1O,1.45,2,24.3,33.2,–,–,–,–,–,–,–
COc1cc(CNc2ccc(Nc3c4c(nc5ccccc35)CCCC4)cc2)ccc1O,1.54,6.4,2.13,77.1,Non-Toxic,30,45.1,Non-Toxic,Toxic,inactive,Active
COc1cc(/C=N/CCCN2C(=O)c3cccc4cccc(c34)C2=O)ccc1O,0.07,2.1,128,–,–,–,–,–,–,–,–
COc1cc(CNCCCN2C(=O)c3cccc4cccc(c34)C2=O)ccc1O,0.26,3.9,10.1,30.4,–,–,–,–,–,–,–
